Test results: PubChem BioAssay AID2060901 (Molecular Pharmacology Branch, DTP, NCI, 2025)
Blank lines part the entries; values can stand above or below the compound they belong to.

System: 422866-222-R5-J1-PDC complex spheroids viability
Test: Anticancer human tumor 422866-222-R5-J1-PDC patient-derived pancreatic adenocarcinoma cell line growth inhibition [RAS]
Conditions: for viability, T/C: stronger effect = lower value
From the text: RAS pathway inhibitors in Combinations in Complex Spheroids
A high-throughput screen of multi-cell type tumor spheroids was designed to identify active combinations of RAS pathway inhibitors and targeted small molecules. Complex spheroids include a stromal component modeled by human endothelial cells (HUVEC) and fibroblasts modeled by human mesenchymal stem cells (MSCs). The concentration ranges selected for each drug and investigational agent were based upon clinically achievable concentrations if the clinical Cmax of the agent was known.
Compounds. The drugs and investigational agents: abemaciclib (NSC768073), cobimetinib (NSC768068), divarasib (GDC6063, NSC841802), docetaxel (NSC628503), GDC-1971 (RLY-1971, NSC841576), gemcitabine (NSC613327), inavolisib (NSC800729), ipatasertib (NSC767898), KB-0742 (NSC834161), MRTX-1133 (NSC836407), osimertinib (NSC779217), RMC-4630 (NSC839698), RMC-6236 (NSC851965), RMC-6291 (NSC852671), Ro-3306 (NSC812927), sapanisertib (NSC764658), SN-38 (NSC673596), staurosporine (NSC755774), SY5609 (NSC837396), and tovorafenib (DAY101, NSC766906), were obtained from the National Cancer Institute (NCI) Developmental Therapeutics Program Chemical Repository. The FDA-approved anticancer drug set is available from the NCI Developmental Therapeutics Program. […] The stock solutions were prepared in dimethyl sulfoxide (DMSO, Sigma-Aldrich, St. Louis, MO, cat. D2650) at 800-fold the tested concentration and stored at -70 degrees C prior to their use. All drugs and investigational agents were tested over a range starting from a high concentration at or near the clinical Cmax and decreasing in half-log increments. If the clinical Cmax for an agent had not been determined, the highest concentration tested was 10 microM.
Cell Culture. All cells were maintained in an incubator at 37 degrees C and 5% CO2 with 95% humidity. The PDC lines were cultured according to standard operating procedures established by the NCI PDMR. All PDCs were thawed and cultured in Matrigel-coated flasks prepared with a working solution of 1X Ham's F-12 nutrient mix, without supplementation (Invitrogen, Waltham, MA, cat. 11765054), 100 U/mL penicillin-streptomycin (Invitrogen, cat. 15140122), and 2.5% Matrigel (Corning Inc., Corning, NY, cat. 354248) for the first three passages. The 362531-283-R-J2-PDC and 782815-120-R-J1-PDC lines were cultured in 6C/Colon 1B media, which includes advanced DMEM/F-12 (Thermo Fisher Scientific, cat. 12634028), 10 mM HEPES (Thermo Fisher Scientific, cat. 15630080), 1X GlutaMAX supplement (Thermo Fisher Scientific, cat. 35050061), 0.1 mg/mL primocin (InvivoGen, San Diego, CA, cat. ant-pm-2), 10% defined fetal bovine serum, heat inactivated (HyClone Laboratories Inc., Logan, UT, cat. SH30070.03HI), 50% L-WRN conditioned media (ATCC, cat. CRL-3276), 1.25 mM N-Acetyl-L-cysteine (Sigma-Aldrich, cat. A9165), 10 mM nicotinamide (Sigma-Aldrich, cat. N0636), 1X B-27 supplement (Thermo Fisher Scientific, cat. 17504044), 1X N-2 supplement (Thermo Fisher Scientific, cat. 17502048), 50 ng/mL human EGF (Thermo Fisher Scientific, cat. PHG0311), and 10 microM Y-27632 dihydrochloride (Tocris Bioscience, cat. 1254). The K12877-001-R-J1-PDC line was cultured in 6I media, which includes all 6C/Colon 1B media plus 10 ng/mL human FGF-10 (PeproTech, cat. 100-26), 1 ng/mL human FGF-2 (PeproTech, cat. 100-18B), 1 µM prostaglandin E2 (Tocris Bioscience, cat. 2296), […] hydrocortisone (Sigma-Aldrich, cat. H4001), and […] bovine insulin (Sigma-Aldrich, cat. I6634). The K86415-001-R-J1-PDC line was cultured in 6D media, which includes all 6C/Colon 1B media components minus the L-WRN conditioned media. The 485176-168-R4-J1-PDC was cultured in PANC media, which includes all 6C/Colon 1B media plus 100 ng/mL human FGF-10 (PeproTech, cat. 100-26), 500 nM SB-431542 (Selleckchem, cat. S1067), and 10 nM gastrin (Tocris Bioscience, cat. 3006). […]

[1] = curve of first compound, second compound 0.000949 µM
[2] = curve of first compound, second compound 0.003 µM
[3] = curve of first compound, second compound 0.00949 µM
[4] = curve of first compound, second compound 0.03 µM
[5] = curve of first compound, second compound 0.0949 µM
[6] = curve of first compound, second compound 0.3 µM
[7] = second compound 0.000949 µM, first compound 0.0316 µM
[8] = second compound 0.000949 µM, first compound 0.1 µM
[9] = second compound 0.000949 µM, first compound 0.316 µM
[10] = second compound 0.000949 µM, first compound 1 µM
[11] = second compound 0.003 µM, first compound 0.0316 µM
[12] = second compound 0.003 µM, first compound 0.1 µM
[13] = second compound 0.003 µM, first compound 0.316 µM
[14] = second compound 0.003 µM, first compound 1 µM
[15] = second compound 0.00949 µM, first compound 0.0316 µM
[16] = second compound 0.00949 µM, first compound 0.1 µM
[17] = second compound 0.00949 µM, first compound 0.316 µM
[18] = second compound 0.00949 µM, first compound 1 µM
[19] = second compound 0.03 µM, first compound 0.0316 µM
[20] = second compound 0.03 µM, first compound 0.1 µM
[21] = second compound 0.03 µM, first compound 0.316 µM
[22] = second compound 0.03 µM, first compound 1 µM
[23] = second compound 0.0949 µM, first compound 0.0316 µM
[24] = second compound 0.0949 µM, first compound 0.1 µM
[25] = second compound 0.0949 µM, first compound 0.316 µM
[26] = second compound 0.0949 µM, first compound 1 µM
[27] = second compound 0.3 µM, first compound 0.0316 µM
[28] = second compound 0.3 µM, first compound 0.1 µM
[29] = second compound 0.3 µM, first compound 0.316 µM
[30] = second compound 0.3 µM, first compound 1 µM
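Throughout, for viability, T/C: 100% = DMSO vehicle control viability.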

IC50 (curve of compound): 2.36 µM [middle of 4 runs]
Compound: CCC(CC)c1cc(NC2CCC(N)C2)n2nccc2n1 (stereo not given)
viability, T/C (compound 0.0316 µM): 99.2% [middle of 4 runs] | viability, T/C (compound 0.316 µM): 116% [middle of 4 runs] | viability, T/C (compound 1 µM): 106% [middle of 4 runs] | viability, T/C (compound 3.16 µM): 29.1% [middle of 4 runs] | viability, T/C (compound 10 µM): 37.6% [middle of 4 runs]

IC50 [1]: < 3.16 nM | IC50 [2]: < 3.16 nM | IC50 [3]: < 3.16 nM | IC50 [4]: < 3.16 nM | IC50 [5]: < 3.16 nM | IC50 [6]: < 3.16 nM
Compound: C=CC(=O)N1CCN(c2nc(OCC3CCCN3C)nc3c(F)c(-c4nc(N)cc(C)c4C(F)(F)F)c(Cl)cc23)C(C)C1 (stereo not given) + CCn1c(-c2cc(N3CCN(C)CC3)cnc2C(C)OC)c2c3cc(ccc31)-c1csc(n1)CC(NC(=O)C1CC1C)C(=O)N1CCCC(N1)C(=O)OCC(C)(C)C2
viability, T/C (second compound 0.000949 µM, first compound 0.00316 µM): 19.5% | viability, T/C (second compound 0.000949 µM, first compound 0.01 µM): 18.6% | viability, T/C [7]: 16.9% | viability, T/C [8]: 18.5% | viability, T/C [9]: 15.8% | viability, T/C [10]: 20.3% | viability, T/C (second compound 0.003 µM, first compound 0.00316 µM): 19.6% | viability, T/C (second compound 0.003 µM, first compound 0.01 µM): 15% | viability, T/C [11]: 19.8% | viability, T/C [12]: 18.2% | viability, T/C [13]: 17.9% | viability, T/C [14]: 20.6% | viability, T/C (second compound 0.00949 µM, first compound 0.00316 µM): 18.3% | viability, T/C (second compound 0.00949 µM, first compound 0.01 µM): 19.1% | viability, T/C [15]: 17.4% | viability, T/C [16]: 14.8% | viability, T/C [17]: 17.7% | viability, T/C [18]: 18% | viability, T/C (second compound 0.03 µM, first compound 0.00316 µM): 17.1% | viability, T/C (second compound 0.03 µM, first compound 0.01 µM): 15.9% | viability, T/C [19]: 15.7% | viability, T/C [20]: 17.9% | viability, T/C [21]: 18.2% | viability, T/C [22]: 22.9% | viability, T/C (second compound 0.0949 µM, first compound 0.00316 µM): 19.4% | viability, T/C (second compound 0.0949 µM, first compound 0.01 µM): 16.9% | viability, T/C [23]: 15.9% | viability, T/C [24]: 19% | viability, T/C [25]: 21.3% | viability, T/C [26]: 21.5% | viability, T/C (second compound 0.3 µM, first compound 0.00316 µM): 19.5% | viability, T/C (second compound 0.3 µM, first compound 0.01 µM): 22.9% | viability, T/C [27]: 21.7% | viability, T/C [28]: 20.2% | viability, T/C [29]: 19.5% | viability, T/C [30]: 24.9%

IC50 [1]: < 31.6 nM | IC50 [2]: < 31.6 nM | IC50 [3]: < 31.6 nM | IC50 [4]: < 31.6 nM | IC50 [5]: < 31.6 nM | IC50 [6]: < 31.6 nM
Compound: CCC(CC)c1cc(NC2CCC(N)C2)n2nccc2n1 (stereo not given) + CCn1c(-c2cccnc2C(C)OC)c2c3cc(ccc31)N1CCOC(CC(NC(=O)C(C(C)C)N(C)C(=O)C3(F)CCN(C(=O)C#CC(C)(C)N(C)C)CC3)C(=O)N3CCCC(N3)C(=O)OCC(C)(C)C2)C1
viability, T/C [7]: 28.4% | viability, T/C [8]: 27.2% | viability, T/C [9]: 29.5% | viability, T/C [10]: 32.3% | viability, T/C (second compound 0.000949 µM, first compound 3.16 µM): 13.3% | viability, T/C (second compound 0.000949 µM, first compound 10 µM): 46.4% | viability, T/C [11]: 27.7% | viability, T/C [12]: 22.5% | viability, T/C [13]: 28.1% | viability, T/C [14]: 28.2% | viability, T/C (second compound 0.003 µM, first compound 3.16 µM): 12.1% | viability, T/C (second compound 0.003 µM, first compound 10 µM): 44.5% | viability, T/C [15]: 23.8% | viability, T/C [16]: 24.4% | viability, T/C [17]: 23.8% | viability, T/C [18]: 29.6% | viability, T/C (second compound 0.00949 µM, first compound 3.16 µM): 14.5% | viability, T/C (second compound 0.00949 µM, first compound 10 µM): 43.7% | viability, T/C [19]: 21.2% | viability, T/C [20]: 22.1% | viability, T/C [21]: 22.8% | viability, T/C [22]: 25.4% | viability, T/C (second compound 0.03 µM, first compound 3.16 µM): 12% | viability, T/C (second compound 0.03 µM, first compound 10 µM): 42% | viability, T/C [23]: 20.7% | viability, T/C [24]: 15.8% | viability, T/C [25]: 22.4% | viability, T/C [26]: 24.5% | viability, T/C (second compound 0.0949 µM, first compound 3.16 µM): 11.7% | viability, T/C (second compound 0.0949 µM, first compound 10 µM): 45.5% | viability, T/C [27]: 15.6% | viability, T/C [28]: 20.1% | viability, T/C [29]: 20.7% | viability, T/C [30]: 24.1% | viability, T/C (second compound 0.3 µM, first compound 3.16 µM): 12.5% | viability, T/C (second compound 0.3 µM, first compound 10 µM): 48.7%
